The values below come from patent US8853258B2, “C-linked hydroxamic acid derivatives useful as antibacterial agents” (Pfizer Inc., priority 2009, dated 2014).

pIC50: −log10 of the molar value. ≈ marks a conversion by molar mass, not a printed value. Read-outs that look alike come from different tables or passages of the source.

As a reminder, the MIC is the lowest concentration found to suppress growth.

In data set [1] the target is Pseudomonas aeruginosa LpxC enzyme (Pseudomonas aeruginosa (strain ATCC 15692 / DSM 22644 / CIP 104116 / JCM 14847 / LMG 12228 / 1C / PRS 101 / PAO1), UniProt P47205). Briefly: IC50 Assay, LpxC Enzyme from P. aeruginosa (PA LpxC Enzyme IC50). The format is biochemical. A digest of the protocol: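 Reaction run 1 h then stopped with 1N HCl. Conversion measured by RapidFire high-throughput mass spectrometry. IC50 derived from percent conversion relative to a no-enzyme control.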

The subject of data set [2] is Acinetobacter baumanii/haemolyticus: Multidrug-resistant clinical isolate (AB-3167). Briefly: MIC determination (CLSI), AB-3167. The format is cell-based. Conditions: for MIC: Acinetobacter baumannii. A digest of the protocol: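 Multidrug-resistant clinical isolate AB-3167 (A. baumannii/haemolyticus) tested for minimum inhibitory concentration following CLSI dilution susceptibility standards M7-A7 and M100-S18.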

Data set [3] concerns Pseudomonas aeruginosa UI-18: Wild-type (PA-7). Kind of data set: MIC determination (CLSI), PA-7. The format is cell-based. The following applies: for MIC: Pseudomonas aeruginosa. A digest of the protocol: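 MIC by dilution method per CLSI M7-A7 and M100-S18 guidelines. Strain: wild-type Pseudomonas aeruginosa UI-18.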
The subject of data set [4] is Escherichia coli EC-1: VOGEL, mouse virulent. Briefly: MIC determination (CLSI), EC-1. The format is cell-based. Conditions: for MIC: Escherichia coli. In outline:
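E. coli Vogel, a mouse-virulent strain (EC-1), was tested. MICs were set by dilution susceptibility testing per CLSI standards M7-A7/M100-S18.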

Data set [5] deals with Klebsiella pneumoniae: Ciprofloxacin-resistant isolate, ESBL, clinical isolate (KP-3700). Briefly: MIC determination (CLSI), KP-3700. The format is cell-based. In outline:
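MIC measured by broth dilution according to CLSI M7-A7 and M100-S18 standards. Test organism was a ciprofloxacin-resistant, ESBL-expressing clinical isolate.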

The mark [6] stands for this setting: P. aeruginosa LpxC enzyme, read-out: PA LpxC enzyeme IC50.
Where [7] appears, read: Acinetobacter baumanii/haemolyticus AB-3167.
The mark [8] stands for this setting: Pseudomonas aeruginosa UI-18 (PA-7).
Where [9] appears, read: Acinetobacter baumanii/haemolyticus multidrug-resistant clinical isolate AB-3167.
The mark [10] stands for this setting: Pseudomonas aeruginosa UI-18 wild-type PA-7.
[11] abbreviates: Escherichia coli EC-1 VOGEL, mouse virulent.
[12] abbreviates: Table 3, read-out: PA LpxC enzyeme IC^50.

In the case of `C[C@@](CCc1ccc(-c2cnc3ccccc3c2)cc1)(C(=O)NO)S(C)(=O)=O` [Example 201], in data set [1] (setting [6]), the pIC50 is 9.62. Also, the “AB-3167 MIC” value in data set [2] (setting [7]) is “≧64 mg/L”. Besides, the “PA-7 MIC” value in data set [3] (setting [8]) was 2 µg/mL. Also, the “EC-1 MIC” value in data set [4] (Escherichia coli EC-1) was determined as 1 µg/mL. Besides, the “KP-3700 MIC” value in data set [5] was 8 µg/mL.

As for `CC(CCc1ccc(-c2ccc(F)c(Cl)c2)cc1)(C(=O)NO)S(C)(=O)=O` (stereo not shown) [Example 104], the pIC50 in data set [1] (setting [6]) is 9.90. Further, in data set [2] (setting [9]), the “AB-3167 MIC” value came to 2 µg/mL. For the same compound, in data set [3] (setting [10]), the “PA-7 MIC” value was found to be 1 µg/mL. For the same compound, the “EC-1 MIC” value in data set [4] (setting [11]) came to 0.5 µg/mL. For the same compound, the “KP-3700 MIC” value in data set [5] worked out at 2 µg/mL.

Take `Cc1ccc(F)c(-c2noc(COc3ccc(CCC(C)(C(=O)NO)S(C)(=O)=O)cc3)n2)c1` (stereo not shown) [Example 291, 4-(4-{[3-(2-fluoro-5-methylphenyl)-1,2,4-oxadiazol-5-yl]methoxy}phenyl)-N-hydroxy-2-methyl-2-(methylsulfonyl)butanamide]: the pIC50 in data set [1] (setting [12]) was 8.03. In addition, the MIC is at least 64 µg/mL in data set [2] (Table 3, read-out: AB-3167 MIC); at least 64 µg/mL in data set [3] (Table 3, read-out: PA-7 MIC); 16 µg/mL (≈ 33.5 µM) in data set [4] (read-out: EC-1 MIC). Moreover, the “KP-3700 MIC” value in data set [5] is listed as “≧64 mg/L”.

As for `CC(CCc1ccc(OCc2ccccc2C#N)cc1)(C(=O)NO)S(C)(=O)=O` (stereo not shown) [Example 285, 4-{4-[(2-cyanobenzyl)oxy]phenyl}-N-hydroxy-2-methyl-2-(methylsulfonyl)butanamide], in data set [1] (setting [12]), the pIC50 is 8.00. Also, the minimum inhibitory concentration (MIC) is at least 64 µg/mL in data set [2] (Table 3, read-out: AB-3167 MIC); 32 µg/mL (≈ 79.5 µM) in data set [3] (Table 3, read-out: PA-7 MIC); 32 µg/mL (≈ 79.5 µM) in data set [4] (read-out: EC-1 MIC). In data set [5], the “KP-3700 MIC” value is “≧64 mg/L”.

Compound `CC(CCc1ccc(-c2ccc(F)cc2)cc1O)(C(=O)NO)S(C)(=O)=O` (racemic) [Example 19, (+/−)-4-(4′-Fluoro-3-hydroxybiphenyl-4-yl)-N-hydroxy-2-methyl-2-(methylsulfonyl)butanamide] gave a pIC50 in data set [1] (PA LpxC enzyeme IC50, Table 1) of 8.46. Also, the MIC is at least 64 µg/mL in data set [2] (Table 1, MIC, read-out: AB-3167 (MIC)); 16 µg/mL (≈ 41.9 µM) in data set [3] (Table 1, MIC, read-out: PA-7 (MIC)); 8 µg/mL (≈ 21 µM) in data set [4] (read-out: EC-1: (MIC)). In data set [5], the “KP-3700 MIC” value worked out at 32 µg/mL.

In the case of `CC(CCc1ccc(-c2cccc(C#N)c2)cc1)(C(=O)NO)S(C)(=O)=O` (stereo not shown) [Example 64], in data set [1] (setting [6]), the pIC50 was 9.13. Besides, in data set [2] (setting [9]), the “AB-3167 MIC” value was “≧64 mg/L”. Also, the “PA-7 MIC” value in data set [3] (setting [10]) came out at 2 µg/mL. In data set [4] (setting [11]), the “EC-1 MIC” value turned out to be 4 µg/mL. For the same compound, the “KP-3700 MIC” value in data set [5] turned out to be 8 µg/mL.

`COc1ccc(-c2ccc(CC[C@](C)(C(=O)NO)S(C)(=O)=O)cc2)cn1` [Example 212]: the pIC50 in data set [1] (setting [6]) is 9.63. Besides, the “AB-3167 MIC” value in data set [2] (setting [7]) is reported as “≧64 mg/L”. Besides, the “PA-7 MIC” value in data set [3] (setting [8]) was determined as 1 µg/mL. Moreover, the “EC-1 MIC” value in data set [4] (Escherichia coli EC-1) was determined as 4 µg/mL. In addition, in data set [5], the “KP-3700 MIC” value came to 16 µg/mL.

Regarding `Cc1cc(CCC(C)(C(=O)NO)S(C)(=O)=O)ccc1-c1ccc(F)cc1` (stereo not shown) [Example 160], in data set [1] (setting [6]), the pIC50 was 8.60. In data set [2] (setting [9]), the “AB-3167 MIC” value amounted to 16 µg/mL. In data set [3] (setting [10]), the “PA-7 MIC” value stood at 4 µg/mL. In addition, the “EC-1 MIC” value in data set [4] (setting [11]) is 2 µg/mL. Further, the “KP-3700 MIC” value in data set [5] turned out to be 8 µg/mL.

`Cc1cccc(COc2ccc(CCC(C)(C(=O)NO)S(C)(=O)=O)cc2)c1` (stereo not shown) [Example 310, N-hydroxy-2-methyl-4-{4-[(3-methylbenzyl)oxy]phenyl}-2-(methylsulfonyl)butanamide]: the pIC50 in data set [1] (setting [12]) is 9.05. The minimum inhibitory concentration (MIC) came to 16 µg/mL (≈ 40.9 µM) in data set [2] (Table 3, read-out: AB-3167 MIC); 4 µg/mL (≈ 10.2 µM) in data set [3] (Table 3, read-out: PA-7 MIC); 2 µg/mL (≈ 5.11 µM) in data set [4] (read-out: EC-1 MIC). For the same compound, the “KP-3700 MIC” value in data set [5] was 8 µg/mL.

Turning to `CC(C)CCOc1ccc(CCC(C)(C(=O)NO)S(C)(=O)=O)cc1` (stereo not shown) [Example 292, N-hydroxy-2-methyl-4-[4-(3-methylbutoxy)phenyl]-2-(methylsulfonyl)butanamide], the pIC50 in data set [1] (setting [12]) is 8.95. The MIC was found to be 16 µg/mL (≈ 44.8 µM) in data set [2] (Table 3, read-out: AB-3167 MIC); 8 µg/mL (≈ 22.4 µM) in data set [3] (Table 3, read-out: PA-7 MIC); 16 µg/mL (≈ 44.8 µM) in data set [4] (read-out: EC-1 MIC). For the same compound, the “KP-3700 MIC” value in data set [5] was “≧64 mg/L”.

Consider `CC(CCc1ccc(-c2ccsc2)cc1)(C(=O)NO)S(C)(=O)=O` (stereo not shown) [Example 77], for which the pIC50 in data set [1] (setting [6]) is 9.00. Besides, in data set [2] (setting [9]), the “AB-3167 MIC” value is recorded as “≧64 mg/L”. Besides, in data set [3] (setting [10]), the “PA-7 MIC” value was 2 µg/mL. Besides, the “EC-1 MIC” value in data set [4] (setting [11]) was found to be 8 µg/mL. Further, in data set [5], the “KP-3700 MIC” value amounted to 16 µg/mL.
